Reference: patent publication US10472347B2, “Aminopyrazine compounds with A2A antagonist properties” (Merck Sharp & Dohme Corp., priority 2014, dated 2019)

target: T1, human A2a receptor (Homo sapiens, UniProt P29274); test: A2a competition binding assay, Scintillation Proximity technology; settings: membranes from HEK293 cells expressing human A2a receptor; 0.5 nM tritiated ligand
T1 construct: purchased Perkin-Elmer RBHA2AM400UA; host or cells: HEK293 cells (membranes)
Procedure: Binding affinities of compounds of the invention for the human A2a receptor were determined in a competition binding assay using Scintillation Proximity technology. Thus, […] from HEK293 cells expressing the human A2a receptor were incubated with a compound of the invention at concentrations ranging from 3000 nM to 0.15 nM in a reaction mixture containing also 0.5 nM of a tritiated form of 5-amino-7-[2-phenethyl]-2-(furan-2-yl)-7H-pyrazolo[4,3-e][1,2,4]triazolo[1,5-c]pyrimidine (the tritiated compound) and 100 μg of wheat germ agglutin-coated yttrium silicate SPA beads for one hour at room temperature with agitation. The beads were then allowed to settle to the bottom of the wells for 1 hr, after which the membrane-associated radioactivity was determined by scintillation counting in a TopCount microplate reader. Ki values were determined using the Cheng-Prusoff equation.
HEK293 cells expressing the human, rat, dog or monkey adenosine 2a receptor (Purchased from Perkin-Elmer # RBHA2AM400UA).
The Tritiated compound was prepared in-house by MRL Radiochemistry according to published methods.
Wheat germ agglutinin-coated yttrium silicate SPA beads (GE Healthcare #RPNQ0023). Dilute to 25 mg/ml in assay buffer.
Assay Buffer was prepared in house: Dulbecco's calcium and magnesium free phosphate buffered saline+10 mM MgCl2
Adenosine deaminase from calf intestine, 10 mg/2 ml (Roche #10 102 105 001).
A2a antagonist standard (9-chloro-1-(2-furanyl)-[1,2,4]triazolo1,5-c]quinazolin-5-amine from Tocris Bioscience)
Make eight 1:3 serial dilutions in 100% DMSO from a 3 mM compound stock
Transfer 50 nl of compound into a 384-well OptiPlate (Perkin Elmer).
Typically, final concentrations of compound used in the assay ranged from 3000 nM to 0.152 nM.
Dilute a solution of the Tritiated compound to 1.25 nM in assay buffer. This is a 2.5× solution. The final concentration in the assay is 0.5 nM. Calculate the concentration by counting two 5 μl aliquots.
Use 0.25 ug of membrane/well. Dilute membranes to 9.7 μg/ml in assay buffer. Treat with 20 ug/ml adenosine deaminase (ADA) for 15 minutes at room temperature to degrade endogenous adenosine.
Use 100 μg/well wheat germ agglutinin-coated yttrium silicate SPA beads.
Mix ADA-treated membranes and SPA beads together for 30 min prior to assay.
To the Perkin-Elmer Optiplate-384 containing the compound titration add 20 μl of 2.5× solution of the Tritiated compound and 30 μl of the membrane-bead mixture. Incubate for one hour at room temperature with agitation.
Include total binding (assay buffer+1% DMSO) and non-specific binding (CGS15943, 1 μM) wells.
Allow the beads to settle for one hour.
A curve fitting program (i.e., Prism, Activity Base, Chemcart) is used to determine the EC50. The Ki value is calculated using the Cheng-Prusoff equation. Ki=EC50/(1+(radioligand concentration/Kd))

T1 sequence (P29274 whole entry): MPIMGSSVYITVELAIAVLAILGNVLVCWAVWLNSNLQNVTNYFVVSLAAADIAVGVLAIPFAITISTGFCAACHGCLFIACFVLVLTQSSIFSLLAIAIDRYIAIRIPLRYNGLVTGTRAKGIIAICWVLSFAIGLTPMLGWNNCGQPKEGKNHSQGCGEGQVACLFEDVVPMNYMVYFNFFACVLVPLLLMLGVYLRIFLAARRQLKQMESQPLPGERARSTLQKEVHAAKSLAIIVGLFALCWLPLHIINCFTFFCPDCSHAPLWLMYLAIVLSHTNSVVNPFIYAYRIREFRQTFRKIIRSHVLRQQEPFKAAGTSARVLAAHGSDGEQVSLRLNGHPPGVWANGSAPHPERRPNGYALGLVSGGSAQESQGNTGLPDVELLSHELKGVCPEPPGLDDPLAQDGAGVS

EC50 [nM]	SMILES
4	Cc1nc(C(=O)N[C@@H]2CCc3cccnc32)c(N)nc1-c1ncco1 (single isomer, unassigned) [Ex-1A]
2.9	Cc1nc(C(=O)N[C@H]2CCc3cccnc32)c(N)nc1-c1ncco1 (single isomer, unassigned) [Ex-1B]

same assay, conditions: membranes from HEK293 cells expressing human A2a receptor; Ki by Cheng-Prusoff equation

SMILES	Ki [nM]
Cc1nc(C(=O)NC(C)c2ccccn2)c(N)nc1-c1ncco1 (single isomer, unassigned) [Ex-82A, 3-amino-6-methyl-5-(1,3-oxazol-2-yl)-N-(1-pyridin-2-ylethyl)pyrazine-2-carboxamide]	2.48
Cc1nc(C(=O)NC(C)c2ccccn2)c(N)nc1-c1ncco1 (single isomer, unassigned) [Ex-82B, 3-amino-6-methyl-5-(1,3-oxazol-2-yl)-N-(1-pyridin-2-ylethyl)pyrazine-2-carboxamide]	43.5
CCC(NC(=O)c1nc(C)c(-c2ncco2)nc1N)c1ccccn1 (single isomer, unassigned) [Ex-94A, 3-amino-6-methyl-5-(1,3-oxazol-2-yl)-N-(1-pyridin-2-ylpropyl)pyrazine-2-carboxamide]	8.7
CCC(NC(=O)c1nc(C)c(-c2ncco2)nc1N)c1ccccn1 (single isomer, unassigned) [Ex-94B, 3-amino-6-methyl-5-(1,3-oxazol-2-yl)-N-(1-pyridin-2-ylpropyl)pyrazine-2-carboxamide]	138
Cc1nc(C(=O)NC2CCCC(O)CC2)c(N)nc1-c1ncco1 (single isomer, unassigned) [Ex-165A, 3-amino-N-(4-hydroxycycloheptyl)-6-methyl-5-(1,3-oxazol-2-yl)pyrazine-2-carboxamide]	13.1
Cc1nc(C(=O)NC2CCCC(O)CC2)c(N)nc1-c1ncco1 (single isomer, unassigned) [Ex-165B, 3-amino-N-(4-hydroxycycloheptyl)-6-methyl-5-(1,3-oxazol-2-yl)pyrazine-2-carboxamide]	2.12
Cc1nc(C(=O)NC2CCCC(O)CC2)c(N)nc1-c1ncco1 (single isomer, unassigned) [Ex-165C, 3-amino-N-(4-hydroxycycloheptyl)-6-methyl-5-(1,3-oxazol-2-yl)pyrazine-2-carboxamide]	7.64
Cc1nc(C(=O)NC2CCCC(O)CC2)c(N)nc1-c1ncco1 (single isomer, unassigned) [Ex-165D, 3-amino-N-(4-hydroxycycloheptyl)-6-methyl-5-(1,3-oxazol-2-yl)pyrazine-2-carboxamide]	9.34
Cc1nc(C(=O)NC2CCCC2(F)F)c(N)nc1-c1ncco1 (single isomer, unassigned) [Ex-191A, 3-amino-N-(2,2-difluorocyclopentyl)-6-methyl-5-(1,3-oxazol-2-yl)pyrazine-2-carboxamide]	1.33
Cc1nc(C(=O)NC2CCCC2(F)F)c(N)nc1-c1ncco1 (single isomer, unassigned) [Ex-191B, 3-amino-N-(2,2-difluorocyclopentyl)-6-methyl-5-(1,3-oxazol-2-yl)pyrazine-2-carboxamide]	2.56
Cc1nc(C(=O)NC2CCc3ccccc3C2)c(N)nc1-c1ncco1 (single isomer, unassigned) [Ex-233A, 3-amino-6-methyl-5-(1,3-oxazol-2-yl)-N-(1,2,3,4-tetrahydronaphthalen-2-yl)pyrazine-2-carboxamide]	1.15
Cc1nc(C(=O)NC2CCc3ccccc3C2)c(N)nc1-c1ncco1 (single isomer, unassigned) [Ex-233B, 3-amino-6-methyl-5-(1,3-oxazol-2-yl)-N-(1,2,3,4-tetrahydronaphthalen-2-yl)pyrazine-2-carboxamide]	0.572
Cc1nc(C(=O)NC2c3ncccc3CC2O)c(N)nc1-c1ncco1 (single isomer, unassigned) [Ex-238A, 3-amino-N-(6-hydroxy-6,7-dihydro-5H-cyclopenta[b]pyridin-7-yl)-6-methyl-5-(1,3-oxazol-2-yl)pyrazine-2-carboxamide]	5.51
Cc1nc(C(=O)NC2c3ncccc3CC2O)c(N)nc1-c1ncco1 (single isomer, unassigned) [Ex-238B, 3-amino-N-(6-hydroxy-6,7-dihydro-5H-cyclopenta[b]pyridin-7-yl)-6-methyl-5-(1,3-oxazol-2-yl)pyrazine-2-carboxamide]	0.94

Now from value to molecule:

Ki [nM]	SMILES
280	Cc1nc(C(=O)NC2CCCc3cnccc32)c(N)nc1-c1ncco1 (single isomer, unassigned) [Ex-84A, 3-amino-6-methyl-5-(1,3-oxazol-2-yl)-N-(5,6,7,8-tetrahydroisoquinolin-5-yl)pyrazine-2-carboxamide]
245	Cc1nc(C(=O)NC2CCCc3cnccc32)c(N)nc1-c1ncco1 (single isomer, unassigned) [Ex-84B, 3-amino-6-methyl-5-(1,3-oxazol-2-yl)-N-(5,6,7,8-tetrahydroisoquinolin-5-yl)pyrazine-2-carboxamide]
3.74	Cc1nc(C(=O)NC2CCCc3cccnc32)c(N)nc1-c1ncco1 (single isomer, unassigned) [Ex-230A, 3-amino-6-methyl-5-(1,3-oxazol-2-yl)-N-(5,6,7,8-tetrahydroquinolin-8-yl)pyrazine-2-carboxamide]
0.762	Cc1nc(C(=O)NC2CCCc3cccnc32)c(N)nc1-c1ncco1 (single isomer, unassigned) [Ex-230B, 3-amino-6-methyl-5-(1,3-oxazol-2-yl)-N-(5,6,7,8-tetrahydroquinolin-8-yl)pyrazine-2-carboxamide]
29.2	COc1ccc2c(c1)CCC2NC(=O)c1nc(C)c(-c2ncco2)nc1N (single isomer, unassigned) [Ex-231A, 3-amino-N-(5-methoxy-2,3-dihydro-1H-inden-1-yl)-6-methyl-5-(1,3-oxazol-2-yl)pyrazine-2-carrboxamide]
10.5	COc1ccc2c(c1)CCC2NC(=O)c1nc(C)c(-c2ncco2)nc1N (single isomer, unassigned) [Ex-231B, 3-amino-N-(5-methoxy-2,3-dihydro-1H-inden-1-yl)-6-methyl-5-(1,3-oxazol-2-yl)pyrazine-2-carboxamide]
0.22	Cc1nc(C(=O)NC2CCc3c(Cl)ccnc32)c(N)nc1-c1ncco1 (single isomer, unassigned) [Ex-244A, 3-amino-N-(4-chloro-6,7-dihydro-5H-cyclopenta[b]pyridin-7-yl)-6-methyl-5-(1,3-oxazol-2-yl)pyrazine-2-carboxamide]
1.28	Cc1nc(C(=O)NC2CCc3c(Cl)ccnc32)c(N)nc1-c1ncco1 (single isomer, unassigned) [Ex-244B, 3-amino-N-(4-chloro-6,7-dihydro-5H-cyclopenta[b]pyridin-7-yl)-6-methyl-5-(1,3-oxazol-2-yl)pyrazine-2-carboxamide]
6.69	Cc1nc(C(=O)NC2CCc3ccc(Cl)nc32)c(N)nc1-c1ncco1 (single isomer, unassigned) [Ex-245A, 3-amino-N-(2-chloro-6,7-dihydro-5H-cyclopenta[b]pyridin-7-yl)-6-methyl-5-(1,3-oxazol-2-yl)pyrazine-2-carboxamide]
4.39	Cc1nc(C(=O)NC2CCc3ccc(Cl)nc32)c(N)nc1-c1ncco1 (single isomer, unassigned) [Ex-245B, 3-amino-N-(2-chloro-6,7-dihydro-5H-cyclopenta[b]pyridin-7-yl)-6-methyl-5-(1,3-oxazol-2-yl)pyrazine-2-carboxamide]
